Entries after “also recorded” stand apart in the source; their conditions may differ.
What was measured:
brain metastases = conditions: radio-sensitizer added to WBRT, randomized controlled studies; cited from earlier work
[1] = Phase 1 safety and tolerability of veliparib with WBRT (AEs by NCI CTCAE v3.0, DLTs); type: in vivo, human
Protocol: (§1) This example is a Phase 1, multicenter, dose-escalation study evaluating the safety, tolerability and pharmacokinetics of veliparib administered concurrently with conventional WBRT in subjects with solid primary tumors metastatic to the brain.
(§2) Patients received WBRT delivered in 2.5 Gy fractions once a day (QD) for a total of 15 fractions or WBRT delivered at 3.0 Gy fractions QD for a total of 10 fractions.
(§3) Veliparib dose-escalation began at 10 mg and increased to 20, 30, 50, 80, 100, 150, 200, and 300 mg twice a day (BID) through out the entire course of WBRT (Table 2); the final WBRT fraction was followed by 1 extra day of veliparib.
AEs were assessed by NCI CTCAE v3.0.

[2] = Phase 1 pharmacokinetics of veliparib administered concurrently with WBRT in patients with brain metastases; type: in vivo, human
Protocol: as §1, §2, §3
To determine PK of veliparib, intensive PK sampling was performed on Day 1 of the WBRT schedules (15 and 10 day) at the following time points: 0, 30, 1, 2, 6 and 24 hours. PK as was also performed on Day 6 for both WBRT schedules at the following time points: 0, 30 min, 1, 2, and 6 For the 15 Day schedule sampling was performed on Day 15 at 0, 30 min, 1, 2 and 6 hours. For the 10 day schedule only a 0 hour sample was collected. Post treatment samples were collected 24-72 hours after the last dose of veliparib for both WBRT schedules.

[3] = nonhuman primate model (Muscal et al. 2010); cited from earlier work
[4] = preclinical study; cited from earlier work
[5] = N = 66, possibly or probably related to veliparib

For `Cc1ncc([N+](=O)[O-])n1CCO` [metronidazole], the “benefit in local brain tumor control or overall survival” value (“benefit” below) (brain metastases) is given as “failing to benefit”.
For `Cc1cc(C)cc(NC(=O)Cc2ccc(OC(C)(C)C(=O)O)cc2)c1` [efaproxiral], the “benefit” value (brain metastases) is given as “failing to benefit”.
In the case of `C[C@]1(c2nc3c(C(N)=O)cccc3[nH]2)CCCN1` [Veliparib, 2-[(2R)-2-methylpyrrolidin-2-yl]-1H-benzimidazole-4-carboxamide], the DLT ([1]; 150 mg veliparib BID, one patient each) is reported as “grade 3 hypokalemia; also recorded: grade 3 hyponatraemia”, the “dose limiting toxicities (DLTs)” value ([1]; 10, 20, 30, 50, 80, 100, 200 and 300 mg dose levels) is reported as “No dose limiting toxicities (DLTs) were observed” and the “Any Event, Any Grade, treatment-emergent AEs possibly or probably related to veliparib” value ([1]; N = 66) is reported as 37 (56) n (%). For the same compound, the “Any Event, Grade 3/4 AEs possibly or probably related to veliparib” value ([1]; N = 66) was 10 (15) n (%), the “Decreased Appetite, Any Grade” value [1, 5] was 8 (12) n (%) and the “Fatigue, Any Grade” value [1, 5] was 22 (33.3) n (%). For the same compound, the “Fatigue, Grade 3/4” value [1, 5] was 3 (5) n (%), the “Nausea, Any Grade” value [1, 5] was 13 (19.7) n (%) and the “Nausea, Grade 3/4” value [1, 5] was 1 (2) n (%). For the same compound, the “Vomiting, Any Grade” value [1, 5] was 8 (12) n (%), the “patients with AEs leading to study drug discontinuation” value ([1]; all causes) was 8 (12%) patients and the “patients with AEs leading to study drug discontinuation possibly or probably related to veliparib” value ([1]; in vivo) was 2 (3%) patients. The “Increase in veliparib exposure (Cmax and AUC) with increase in veliparib dose” value ([2]; 10 to 150 mg BID dose range) was “approximately dose-proportional”, the “veliparib accumulation following BID dosing” value ([2]; Cmax and AUC on Day 1, Day 6 and Day 15) was “minimal” and the “effect of food on veliparib oral bioavailability” value ([2]; exposure Day 6 (fasting) vs Day 15 (non-fasting)) was “no significant effect of food”. For the same compound, the Tmax ([2]; human, plasma, oral veliparib BID with WBRT, patients) was 1 to 2 h, the oral clearance ([2]; mean±SD, n=45, 10 to 150 mg BID dose range) was 21.6 ± 14.2 L/h and the “level in CSF” value [3] was “measured in CSF in a range that has been shown to inhibitor PARP activity in vivo in humans”. For the same compound, the “blood-brain barrier crossing and accumulation in brain tumor tissue” value [4] was “shown to cross the blood-brain barrier and accumulate in brain tumor tissue”.
For `CC(=O)[O-].CC(=O)[O-].CCc1c(CC)c2cc3nc(cnc4cc(OCCOCCOCCOC)c(OCCOCCOCCOC)cc4ncc4nc(cc1[n-]2)C(CCCO)=C4C)C(C)=C3CCCO.O.[Gd+3]` [motexafin gadolinium], the “benefit” value (brain metastases) is listed as “failing to benefit”.
In the case of `O=c1[nH]c(=O)n([C@H]2C[C@H](O)[C@@H](CO)O2)cc1Br` [bromodeoxyuridine], the “benefit” value (brain metastases) is listed as “failing to benefit”.
In the case of `COCC(O)Cn1ccnc1[N+](=O)[O-]` (stereo not shown) [misonidazole], the “benefit” value (brain metastases) is given as “failing to benefit”.
For `O=C(O)c1nn(Cc2ccc(Cl)cc2Cl)c2ccccc12` [lonidamine], the “benefit” value (brain metastases) is listed as “failing to benefit”.

From patent publication US20130310625A1, “VELIPARIB IN COMBINATION WITH WHOLE BRAIN RADIATION THERAPY FOR THE TREATMENT OF BRAIN METASTASES” (AbbVie Inc., priority 2012, published 2013)
